What is called IC50 is the concentration needed to halve the response being measured.

Our source for the IC50 values is ChEMBL document CHEMBL1140127, “Enantiomeric propanolamines as selective N-methyl-D-aspartate 2B receptor antagonists” (J Med Chem, 2008).

The target in the assay is Glutamate NMDA receptor; Grin1/Grin2b (Rattus norvegicus, UniProt P35439+Q00960). The assay is described as follows: Inhibition of rat recombinant NR1/NR2B receptor expressed in Xenopus oocytes assessed as inhibition of glutamate and glycine-induced evoked current by two electrode voltage clamp method. Type of assay: cell-based, Oocyte. For orientation: In two-electrode clamp one electrode senses voltage and the other passes current.
Chain of Glutamate NMDA receptor; Grin1/Grin2b (Q00960 whole entry, other chains not shown): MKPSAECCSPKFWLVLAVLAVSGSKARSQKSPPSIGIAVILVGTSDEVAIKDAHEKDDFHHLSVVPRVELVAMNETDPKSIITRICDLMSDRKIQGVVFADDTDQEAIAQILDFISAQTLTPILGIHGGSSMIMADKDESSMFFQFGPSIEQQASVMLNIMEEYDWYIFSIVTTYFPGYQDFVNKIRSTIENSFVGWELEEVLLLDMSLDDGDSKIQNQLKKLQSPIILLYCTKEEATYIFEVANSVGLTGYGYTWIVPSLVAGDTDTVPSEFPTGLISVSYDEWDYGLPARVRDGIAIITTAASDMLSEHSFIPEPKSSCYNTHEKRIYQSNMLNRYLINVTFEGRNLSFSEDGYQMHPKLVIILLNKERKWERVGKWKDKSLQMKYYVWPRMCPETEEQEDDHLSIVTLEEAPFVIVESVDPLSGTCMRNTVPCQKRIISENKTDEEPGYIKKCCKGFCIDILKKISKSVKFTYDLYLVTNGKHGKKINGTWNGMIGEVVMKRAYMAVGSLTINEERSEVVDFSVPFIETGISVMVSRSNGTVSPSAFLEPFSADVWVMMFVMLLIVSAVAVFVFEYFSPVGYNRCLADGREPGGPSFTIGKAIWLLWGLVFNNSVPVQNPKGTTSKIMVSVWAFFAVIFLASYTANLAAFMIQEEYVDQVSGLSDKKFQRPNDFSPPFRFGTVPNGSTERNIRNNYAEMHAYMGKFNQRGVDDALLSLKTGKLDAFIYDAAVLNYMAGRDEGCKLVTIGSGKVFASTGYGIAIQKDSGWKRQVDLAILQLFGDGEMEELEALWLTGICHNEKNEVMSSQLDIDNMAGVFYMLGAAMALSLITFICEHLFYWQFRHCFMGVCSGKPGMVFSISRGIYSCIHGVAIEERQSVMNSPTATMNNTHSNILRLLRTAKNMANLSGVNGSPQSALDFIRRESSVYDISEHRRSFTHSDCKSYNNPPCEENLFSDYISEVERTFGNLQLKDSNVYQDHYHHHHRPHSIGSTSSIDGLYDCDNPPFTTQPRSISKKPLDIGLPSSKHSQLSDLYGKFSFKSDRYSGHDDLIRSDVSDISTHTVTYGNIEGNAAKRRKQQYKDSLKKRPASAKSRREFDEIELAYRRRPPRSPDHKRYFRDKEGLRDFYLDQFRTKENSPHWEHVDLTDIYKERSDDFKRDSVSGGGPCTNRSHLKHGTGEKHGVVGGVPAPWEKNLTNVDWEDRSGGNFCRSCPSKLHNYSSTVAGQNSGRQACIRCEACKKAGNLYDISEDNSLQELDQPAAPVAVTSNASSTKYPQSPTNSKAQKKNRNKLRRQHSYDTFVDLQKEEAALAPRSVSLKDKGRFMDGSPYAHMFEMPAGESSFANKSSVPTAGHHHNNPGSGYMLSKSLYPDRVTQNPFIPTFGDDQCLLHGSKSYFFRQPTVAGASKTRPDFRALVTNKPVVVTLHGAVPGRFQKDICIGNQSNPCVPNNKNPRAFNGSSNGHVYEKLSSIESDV

Where only a bound is given, the exact number is not on record here.

Turning to `CS(=O)(=O)Nc1ccc(OC[C@@H](O)CNCCc2ccc(O)c(O)c2)cc1`, the half-maximal inhibitory concentration (IC50) is greater than 100000 nM.

For `CC(C)N(CCc1ccc(Cl)c(Cl)c1)C[C@H](O)COc1ccc(NS(C)(=O)=O)cc1`, the IC50 was determined as 603 nM.

As for `Cc1ccccc1CN(CCc1ccc(Cl)c(Cl)c1)C[C@H](O)COc1ccc(NS(C)(=O)=O)cc1`, the IC50 was determined as 5700 nM.

Consider `CS(=O)(=O)Nc1ccc(OC[C@@H](O)CN(CCc2ccccc2)CCc2ccc(Cl)c(Cl)c2)cc1`, for which the IC50 stood at 3510 nM.

With `CS(=O)(=O)Nc1ccc(OC[C@@H](O)CNCCc2ccc(Cl)c(Cl)c2)cc1F`, the IC50 was 427 nM.

As for `CC(=O)Nc1ccc(OC[C@@H](O)CNCCc2ccc(Cl)c(Cl)c2)cc1`, the IC50 stood at 4370 nM.

Consider `CS(=O)(=O)Nc1ccc(OC[C@@H](O)CN(CCc2ccc(Cl)c(Cl)c2)Cc2cccnc2)cc1`, for which the IC50 was 278 nM.

Regarding `CS(=O)(=O)Nc1ccc(OC[C@@H](O)CNCCc2ccc3c(c2)OCO3)cc1`, the IC50 came to 951 nM.

`CS(=O)(=O)Nc1ccc(OC[C@H](O)CNCCc2ccc(Cl)c(Cl)c2)cc1`: the IC50 came to 188 nM.

Turning to `CS(=O)(=O)Nc1ccc(OC[C@@H](O)CNCCc2ccccc2O)cc1`, the IC50 was found to be 2000 nM.

In the case of `CS(=O)(=O)Nc1ccc(OC[C@H](O)CN(CCO)CCc2ccc(Cl)c(Cl)c2)cc1`, the IC50 is 173 nM.

With `CS(=O)(=O)Nc1ccc(OC[C@@H](O)CN(CCc2ccc(Cl)c(Cl)c2)Cc2ccccc2Br)cc1`, the IC50 was 38 nM.

For `CS(=O)(=O)Nc1ccc(OC[C@@H](O)CN(CCc2ccc(Cl)c(Cl)c2)CC2CCCCC2)cc1`, the IC50 amounted to 9840 nM.

As for `COc1ccccc1CN(CCc1ccc(Cl)c(Cl)c1)C[C@H](O)COc1ccc(NS(C)(=O)=O)cc1`, the IC50 came to 3860 nM.

`CS(=O)(=O)Nc1ccc(OC[C@@H](O)CN(CCc2ccc(Cl)c(Cl)c2)Cc2ccccc2C(F)(F)F)cc1`: the IC50 worked out at 3720 nM.

On to `COc1cccc(CN(CCc2ccc(Cl)c(Cl)c2)C[C@H](O)COc2ccc(NS(C)(=O)=O)cc2)c1OC`, for which the IC50 is 2790 nM.

For the compound `CS(=O)(=O)Nc1ccccc1OC[C@@H](O)CNCCc1ccc(Cl)c(Cl)c1`, the IC50 stood at 12000 nM.

Regarding `CS(=O)(=O)Nc1ccc(OC[C@H](O)CN(CCc2ccc(Cl)c(Cl)c2)Cc2ccccc2O)cc1`, the IC50 worked out at 433 nM.

With `CS(=O)(=O)Nc1ccc(OC[C@@H](O)CNCCc2ccc(F)c(Cl)c2)cc1`, the IC50 was found to be 397 nM.

As for `CS(=O)(=O)Nc1ccc(OC[C@@H](O)CNCCc2cccc(Cl)c2)cc1`, the IC50 was 628 nM.

In the case of `CS(=O)(=O)Nc1ccc(OC[C@@H](O)CN(CCc2ccc(Cl)c(Cl)c2)Cc2ccc(O)cc2)cc1`, the IC50 was determined as 113 nM.

For `CC(=O)Oc1ccccc1CN(CCc1ccc(Cl)c(Cl)c1)C[C@H](O)COc1ccc(NS(C)(=O)=O)cc1`, the IC50 amounted to 500 nM.

As to `C[C@H](NC[C@H](O)COc1ccc(NS(C)(=O)=O)cc1)c1cccc2ccccc12`, the IC50 came to 5070 nM.

As for `CS(=O)(=O)Nc1ccc(OC[C@@H](O)CN(CCc2ccc(Cl)c(Cl)c2)Cc2c(F)cccc2F)cc1`, the IC50 worked out at 281 nM.

Turning to `CS(=O)(=O)Nc1ccc(OC[C@@H](O)CN(CCc2ccc(Cl)c(Cl)c2)Cc2cccc(F)c2)cc1`, the IC50 came to 249 nM.

In the case of `CCCS(=O)(=O)Nc1ccc(OC[C@@H](O)CNCCc2ccc(Cl)c(Cl)c2)cc1`, the IC50 worked out at 6100 nM.

With `CCCN(CCc1ccc(Cl)c(Cl)c1)C[C@H](O)COc1ccc(NS(C)(=O)=O)cc1`, the IC50 was found to be 635 nM.

As to `CS(=O)(=O)Nc1ccc(OC[C@@H](O)CN(CCc2ccc(Cl)c(Cl)c2)Cc2cccc(O)c2O)cc1`, the IC50 stood at 1820 nM.

As to `CS(=O)(=O)Nc1ccc(OC[C@@H](O)CNCCc2ccccc2F)cc1`, the IC50 was 573 nM.

In the case of `O=C(Nc1ccc(OC[C@@H](O)CNCCc2ccc(Cl)c(Cl)c2)cc1)C(Cl)Cl`, the IC50 is 12800 nM.

Consider `Cc1ccc(CN(CCc2ccc(Cl)c(Cl)c2)C[C@H](O)COc2ccc(NS(C)(=O)=O)cc2)cc1`, for which the IC50 was 5410 nM.

Take `CS(=O)(=O)Nc1ccc(OC[C@@H](O)CN(CCc2ccc(Cl)c(Cl)c2)Cc2ccc(O)cc2O)cc1`: the IC50 stood at 146 nM.

Regarding `CS(=O)(=O)Nc1ccc(OC[C@@H](O)CNCCc2cc(O)cc(O)c2)cc1`, the IC50 was greater than 100000 nM.

`CN(c1ccc(OC[C@@H](O)CNCCc2ccc(Cl)c(Cl)c2)cc1)S(C)(=O)=O`: the IC50 came to 9910 nM.

Consider `CS(=O)(=O)Nc1ccc(OC[C@@H](O)CN(CCc2ccc(Cl)c(Cl)c2)Cc2nccs2)cc1`, for which the IC50 turned out to be 3580 nM.

As for `CS(=O)(=O)Nc1ccc(OC[C@@H](O)CNCCc2ccc(Cl)c(Cl)c2)c(F)c1`, the IC50 worked out at 72 nM.

As to `O=C(Nc1ccc(OC[C@@H](O)CNCCc2ccc(Cl)c(Cl)c2)cc1)C(Cl)(Cl)Cl`, the IC50 is 10600 nM.

Take `O=[N+]([O-])c1ccc(OC[C@@H](O)CNCCc2ccc(Cl)c(Cl)c2)cc1`: the IC50 was found to be 9380 nM.

On to `CCCCCN(CCc1ccc(Cl)c(Cl)c1)C[C@H](O)COc1ccc(NS(C)(=O)=O)cc1`, for which the IC50 was 659 nM.

With `CS(=O)(=O)Nc1ccc(OC[C@@H](O)CN(CCc2ccc(Cl)c(Cl)c2)Cc2ccc(F)cc2)cc1`, the IC50 amounted to 275 nM.

`CS(=O)(=O)Nc1ccc(OC[C@@H](O)CNCCc2cccc(O)c2)cc1`: the IC50 came out at 4430 nM.

As to `CCS(=O)(=O)Nc1ccc(OC[C@@H](O)CNCCc2ccc(Cl)c(Cl)c2)cc1`, the IC50 was found to be 587 nM.

Regarding `CN(CCc1ccc(Cl)c(Cl)c1)C[C@@H](O)COc1ccc(NS(C)(=O)=O)cc1`, the IC50 was determined as 253 nM.

With `CS(=O)(=O)Nc1ccc(OC[C@@H](O)CN(CCc2ccc(Cl)c(Cl)c2)Cc2c(F)c(F)c(F)c(F)c2F)cc1`, the IC50 worked out at 524 nM.

Consider `CS(=O)(=O)Nc1ccc(OC[C@@H](O)CN(CCc2ccc(Cl)c(Cl)c2)Cc2ccccc2Cl)cc1`, for which the half-inhibitory concentration (IC50) stood at 479 nM.

Turning to `CS(=O)(=O)Nc1ccc(OC[C@@H](O)CNCCc2ccc(Cl)cc2Cl)cc1`, the IC50 was found to be 2320 nM.

Regarding `CS(=O)(=O)Nc1ccc(OC[C@@H](O)CNCCc2ccc([N+](=O)[O-])cc2)cc1`, the IC50 was 1140 nM.

In the case of `CS(=O)(=O)Nc1ccc(OC[C@@H](O)CNCCc2ccc(F)cc2)cc1`, the half-inhibitory concentration (IC50) amounted to 748 nM.

For the compound `CS(=O)(=O)Nc1ccc(OC[C@@H](O)CN(CCc2ccc(Cl)c(Cl)c2)Cc2cccc3c2OCO3)cc1`, the IC50 was determined as 5010 nM.

For `CCCCS(=O)(=O)Nc1ccc(OC[C@@H](O)CNCCc2ccc(Cl)c(Cl)c2)cc1`, the IC50 came out at 6790 nM.

`CS(=O)(=O)Nc1ccc(OC[C@@H](O)CNCCc2ccccc2Cl)cc1`: the IC50 turned out to be 429 nM.

For `CS(=O)(=O)Nc1ccc(OC[C@H](O)CN(CCc2ccc(Cl)c(Cl)c2)Cc2cccc(O)c2)cc1`, the IC50 was found to be 409 nM.

For the compound `O=S(=O)(Nc1ccc(OC[C@@H](O)CNCCc2ccc(Cl)c(Cl)c2)cc1)c1ccccc1`, the IC50 amounted to 1450 nM.

Consider `CS(=O)(=O)Nc1ccc(OC[C@@H](O)CN(CCc2ccc(Cl)c(Cl)c2)Cc2ccccc2)cc1`, for which the IC50 came out at 177 nM.

`CS(=O)(=O)Nc1ccc(OC[C@@H](O)CN(CCc2ccc(Cl)c(Cl)c2)CCc2ccccc2O)cc1`: the IC50 was 755 nM.

As to `CCCCN(CCc1ccc(Cl)c(Cl)c1)C[C@@H](O)COc1ccc(NS(C)(=O)=O)cc1`, the IC50 is 1280 nM.

As to `CS(=O)(=O)Nc1ccc(OC[C@@H](O)CNCCc2ccc(O)cc2)cc1`, the IC50 was 7240 nM.

As for `CS(=O)(=O)Nc1ccc(OC[C@@H](O)CN(CCc2ccc(Cl)c(Cl)c2)Cc2ccccc2[N+](=O)[O-])cc1`, the IC50 turned out to be 589 nM.

As for `Cc1cc(OC[C@@H](O)CNCCc2ccc(Cl)c(Cl)c2)ccc1NS(C)(=O)=O`, the IC50 came to 687 nM.

In the case of `CS(=O)(=O)Nc1ccc(OC[C@@H](O)CNCCc2cccc(F)c2)cc1`, the half-maximal inhibitory concentration (IC50) worked out at 853 nM.

`COc1cccc(OC)c1CN(CCc1ccc(Cl)c(Cl)c1)C[C@H](O)COc1ccc(NS(C)(=O)=O)cc1`: the IC50 was determined as 11900 nM.

With `CS(=O)(=O)Nc1cccc(OC[C@@H](O)CNCCc2ccc(Cl)c(Cl)c2)c1`, the IC50 is 530 nM.
